Test results published in patent EP0314302A2, “Herbicidal o-carbomethoxy-sulfonylureas” (E.I. DU PONT DE NEMOURS AND COMPANY, priority 1987, dated 1989).

Experiments:
[1] = tested on: Annual ryegrass; test: Test 8 postemergence safety to pineapple, turfs and weed control; format: in vivo; settings: scale 0-100
Description: (§1) The object of this test was to evaluate the compound of this invention for postemergence safety to pineapple, turfs and weed control. Climax timothy, Kentucky bluegrass, forage fescue, Kentucky fescue, bermudagrass, bentgrass, annual bluegrass, bahiagrass, purple nutsedge, yellow nutsedge, large crabgrass, perennial ryegrass, annual ryegrass, galium and pineapple were sprayed postemergence with the compound in a non-phytotoxic solvent. Plants were visually rated 36 days after treatment (DAT). Injury ratings were based on the scale of 0 to 100 where 0 = no effect, 20 = minimal effect and 100 = complete control.

[2] = tested on: Large crabgrass; test: as above; format: in vivo; settings: scale 0-100
Description: as §1

[3] = tested on: Annual bluegrass; test: as above; format: in vivo; settings: scale 0-100
Description: as §1

[4] = tested on: Bentgrass; test: as above; format: in vivo; settings: scale 0-100
Description: as §1

[5] = tested on: Kentucky bluegrass; test: as above; format: in vivo; settings: scale 0-100
Description: as §1

[6] = tested on: Perennial ryegrass; test: as above; format: in vivo; settings: scale 0-100
Description: as §1

[7] = tested on: Yellow nutsedge; test: as above; format: in vivo; settings: scale 0-100
Description: as §1

[8] = tested on: Bahiagrass; test: as above; format: in vivo; settings: scale 0-100
Description: as §1

[9] = tested on: Kentucky fescue; test: as above; format: in vivo; settings: scale 0-100
Description: as §1

[10] = tested on: Climax timothy; test: as above; format: in vivo; settings: scale 0-100
Description: as §1

[11] = tested on: Bermudagrass; test: as above; format: in vivo; settings: scale 0-100
Description: as §1

[12] = tested on: Pineapple; test: as above; format: in vivo; settings: scale 0-100
Description: as §1

[13] = tested on: Forage fescue; test: as above; format: in vivo; settings: scale 0-100
Description: as §1

[14] = tested on: Purple nutsedge; test: as above; format: in vivo; settings: scale 0-100
Description: as §1

[15] = tested on: Galium; test: as above; format: in vivo; settings: scale 0-100
Description: as §1

[16] = tested on: Flax; test: Test 10 postemergence safety to crops and weed control; format: in vivo; settings: 16 g/ha, scale 0-100
Procedure: (§2) The object of these tests was to evaluate the compound of this invention for postemergence safety to crops and weed control. Seedling and budded Macedine grapes were grown in 11.4-cm pots. Flax, green foxtail (Setaria viridis), "Morex" barley, wild oats (Avena fatua), "Era" wheat, annual ryegrass (Lolium multiflorum), wild radish (Raphanus raphanistrum), rape, sunflower, chickweed (Stellaria media) and wild buckwheat (Polygonum convolvulus) were seeded in windowsill pots.
(§3) The plants were sprayed postemergence with Compound I in a non-phytotoxic solvent. Plants were visually rated 15 and 27 days after treatment (DAT). Injury and weed control ratings were based on the scale of 0 to 100 where 0 = no effect, 20 minimal control and 100 = complete control.

[17] = tested on: Morex barley; test: as above; format: in vivo; settings: 16 g/ha, scale 0-100
Procedure: as §2, §3

[18] = tested on: Rape; test: as above; format: in vivo; settings: 16 g/ha, scale 0-100
Procedure: as §2, §3

[19] = tested on: Sunflower; test: as above; format: in vivo; settings: 16 g/ha, scale 0-100
Procedure: as §2, §3

[20] = tested on: Era wheat; test: as above; format: in vivo; settings: 16 g/ha, scale 0-100
Procedure: as §2, §3

[21] = tested on: Itchgrass; test: Test 5 sugarcane injury and weed control, postemergence; format: in vivo, Rottboellia exaltata; settings: scale 0-100
Procedure: Sugarcane (Saccharum spp.) cuttings which had been pre-sprouted were planted in 15-cm plastic pots. Narrowleaf panicum (Panicum maximum), large crabgrass (Digitaria sanguinalis), guineagrass (P. maximum) and itchgrass (Rottboellia exaltata) were seeded in individual 15-cm plastic pots.
The pots were treated postemergence when the plants had 3 to 4 leaves with 2 to 3 tillers with Compound I formulated in a non-phytotoxic carrier made up of acetone-humectant-water-surfactant (22:1:1:0.05 v/v). The degree of crop injury and weed control was visually rated 27 days after treatment (DAT). Plant injury ratings are based on the scale of 0 to 100 where 0 = no effect, 20 = minimal injury and 100 = complete control.

[22] = tested on: Tansy mustard; test: Test 7 postemergence; format: in vivo, Descurainia pinnata; settings: scale 0-100
Procedure: Individual 11.4-cm plastic pots filled with planting medium were seeded with rape, wild radish (Raphanus raphanistruna). tansy mustard (Descurainia pinnata), ball mustard (Neslia paniculata), black mustard (Brassica nigra), yellow mustard, brown mustard, lentils, safflower, flax, sunflower, peanut, vetch, alfalfa, field bean, pea, violet (Viola spp), Kochia (Kochia spp), Russian thistle (Salsola spp), Matricaria spp, groundsel (Senecio spp), shepherdspurse (Capsella bursa-pastoris), nightshade (Solanum spp), sowthistle (Sonchus spp), sugar beet, wheat, "Bonanza" barley and "Morex" barley, Kentucky bluegrass (Poa pratensis), red clover (Trifolium pratense), dandelion (Taraxacum spp) and buckhorn plantain (Plantago lanceolata).
Plants were treated postemergence with the compound formulated with a non-phytotoxic carrier. Plants were visually rated 18 days after treatment (DAT). Response ratings were based on the scale of 0 to 100 where 0 = no effect, 20 = minimal injury and 100 = complete control.

COC(=O)c1cccnc1S(=O)(=O)NC(=O)Nc1nc(OC)cc(OC)n1 [Compound I, 2-[[(4,6-dimethoxypyrimidin-2-yl)aminocarbonyl]aminosulfonyl]-3-pyridinecarboxylic acid, methyl ester]
Plant Injury Rating 36 DAT ([1]; 16 g/ha): 100
Plant Injury Rating 36 DAT ([1]; 32 g/ha): 100
Plant Injury Rating 36 DAT ([2]; 16 g/ha): 60
Plant Injury Rating 36 DAT ([2]; 32 g/ha): 80
Plant Injury Rating 36 DAT ([3]; 16 g/ha): 100
Plant Injury Rating 36 DAT ([3]; 32 g/ha): 100
Plant Injury Rating 36 DAT ([4]; 16 g/ha): 70
Plant Injury Rating 36 DAT ([4]; 32 g/ha): 100
Plant Injury Rating 36 DAT ([5]; 16 g/ha): 100
Plant Injury Rating 36 DAT ([5]; 32 g/ha): 100
Plant Injury Rating 36 DAT ([6]; 16 g/ha): 100
Plant Injury Rating 36 DAT ([6]; 32 g/ha): 100
Plant Injury Rating 36 DAT ([7]; 16 g/ha): 60
Plant Injury Rating 36 DAT ([7]; 32 g/ha): 100
Plant Injury Rating 36 DAT ([8]; 16 g/ha): 70
Plant Injury Rating 36 DAT ([8]; 32 g/ha): 100
Plant Injury Rating 36 DAT ([9]; 16 g/ha): 100
Plant Injury Rating 36 DAT ([9]; 32 g/ha): 100
Plant Injury Rating 36 DAT ([10]; 16 g/ha): 100
Plant Injury Rating 36 DAT ([10]; 32 g/ha): 100
Plant Injury Rating 36 DAT ([11]; 16 g/ha): 0
Plant Injury Rating 36 DAT ([11]; 32 g/ha): 0
Plant Injury Rating 36 DAT ([12]; 16 g/ha): 0
Plant Injury Rating 36 DAT ([12]; 32 g/ha): 0
Plant Injury Rating 36 DAT ([13]; 16 g/ha): 100
Plant Injury Rating 36 DAT ([13]; 32 g/ha): 100
Plant Injury Rating 36 DAT ([14]; 16 g/ha): 50
Plant Injury Rating 36 DAT ([14]; 32 g/ha): 100
Plant Injury Rating 36 DAT ([15]; 16 g/ha): 100
Plant Injury Rating 36 DAT ([15]; 32 g/ha): 100
Plant Injury Rating 15 DAT [16]: 100
Plant Injury Rating 15 DAT [17]: 100
Plant Injury Rating 15 DAT [18]: 100
Plant Injury Rating 15 DAT [19]: 100
Plant Injury Rating 15 DAT [20]: 100
Plant Injury Rating 27 DAT ([21]; 8 g/ha): 80
Plant Injury Rating 27 DAT ([21]; 16 g/ha): 80
Plant Injury Rating 27 DAT ([21]; 32 g/ha): 100
Plant Injury Rating 27 DAT ([21]; 64 g/ha): 100
Plant Injury Rating 18 DAT ([22]; 16 g/ha): 100
Plant Injury Rating 18 DAT ([22]; 32 g/ha): 100
